Tests used:
HepG2 cells = experiment: HepG2 cell viability assay (CellTiter-Glo, cellular ATP); format: cell-based; conditions: 24 hr, serum-free OptiMEM
Protocol: (§1) HepG2 cells (ATCC, Cat.:HB-8065) were maintained in Growth medium—Eagle's Minimum Essential Medium (Corning, 10-010-CVR), 10% FBS (Gibco, 10099-141), Penicillin (100 units/mL), Streptomycin (100 μg/mL). HepG2 cells were incubated at 37° C., 5% CO2. HepG2 cells were plated in black clear bottom 96-well plates (Corning, 3063) at 40,000 cells/well in 100 μL of growth media. After an overnight incubation, the culture media were changed to serum-free OptiMEM media (Gibco, 31985-062), 90 μL/well. Vehicle, PF-06446846 hydrochloride, berberine, or test compound was added to the culture media, 10 μL/well. After 24 hr cellular ATP levels were measured using CellTiter-Glo® 2.0 Assay (Promega, G9242).

[1] = Metabolic stability in human liver microsomes; format: in vitro ADME; conditions: human liver microsomes 0.5 mg/mL, 37° C., read-out: Metabolic stability T1/2 (minute) Human
Protocol: (§2) Metabolic Stability of Test Compounds in Incubation with Human, and Rat Liver Microsomes Study Details: • Test concentration: 1 μM; • Reference compound: Ketanserin; • Test systems: human, and rat liver microsomes (from Corning or Xenotech) with final liver microsomal protein concentration of 0.5 mg/mL; • Incubation condition: 0, 5, 15, 30, and 45 min at 37° C.; • Sample size: Duplicates (n=2); • Bioanalytical method: LC-MS/MS;
(§3) [formula] [formula] [formula] • where QH is the hepatic blood flow (mL/min/kg), fub is the fraction of unbound drug in plasma which is assumed to be 1, Clint is the in vitro intrinsic clearance.

PCSK9 mRNA = experiment: RT-Q-PCR analysis of PCSK9 mRNA in HepG2 cells; format: cell-based; conditions: Homo sapiens, 24 h, normalized to GAPDH, read-out: HepG2 Q-PCR PCSK9 mRNA level decrease (10 μM)
Protocol: HepG2 cells (ATCC, Cat.:HB-8065) were maintained in Growth medium—Eagle's Minimum Essential Medium (Corning, 10-010-CVR), 10% FBS (Gibco, 10099-141), Penicillin (100 units/mL), Streptomycin (100 μg/mL). HepG2 cells were incubated at 37° C., 5% CO2.
Cells were cultured in growth medium as described above and treated with the vehicle, Berberine or test compound for 24 h. The RNA was extracted using the Total RNA mini Kit (Tiangen, Beijing, China) according to the manufacturer's instructions. Reverse transcription was carried out using the High-Capacity cDNA reverse transcription kit (Thermo Fisher Scientific). Quantitative real-time PCR was performed using a reaction mixture containing cDNA, specific primers [PCSK9, 5′-[…]-3′ (forward) and 5′-[…]-3′ (reverse); GAPDH, 5′-[…]-3′ (forward) and 5′-[…]-3′ (reverse)] and Maxima SYBR Green/ROX qPCR Master Mix(Thermo Fisher Scientific). PCR amplification was carried out in a Real-Time PCR System. The real-time PCR conditions were 37° C. 10 min; 95° C. 10 min; 95° C. 15 s, 60° C. 30 s, 72° C. 30 s, 40 cycle. The amount of mRNA was normalized to the GAPDH level in the same samples.

[2] = Metabolic stability in rat liver microsomes; format: in vitro ADME; conditions: rat liver microsomes 0.5 mg/mL, 37° C., read-out: Metabolic stability T1/2 (minute) Rat
Protocol: as §2, §3

PCSK9 = PCSK9 ELISA of HepG2 culture medium; format: cell-based; conditions: 24 hr
Protocol: as §1, with “flat” for “black clear”, “3599)” for “3063)”, “media(Gibco,” for “media (Gibco,”, “medium was harvested, and 10 μL of the medium” for “cellular ATP levels”, “used for the PCSK9 ELISA(R&D Systems, SPC900).” for “measured using CellTiter-Glo® 2.0 Assay (Promega, G9242).”

Compound | HepG2 Survival assay (10 μM) (HepG2 cells) | half-life at 1 μM [1] | inhibition at 10 µM (PCSK9 mRNA) | half-life at 1 μM [2] | HepG2 PCSK9 ELISA (10 μM) % inhibition (PCSK9)
CC(C)c1ccc(Oc2ccc(NC(=O)CN(CC(=O)NC3CC3)C(=O)c3cc4cccc(F)c4[nH]3)cc2)cc1 [Compound 201-312] | 102.7% | 52.8 min | 50% | 29.6 min | 89%
COc1ccc(Oc2ccc(NC(=O)CN(CC(=O)NC3CC3)C(=O)c3cc4cccc(F)c4[nH]3)cc2)cc1 [Compound 201-314] | 103.7% | – | – | – | 97%
CC(C)c1ccc(Oc2ccc(NC(=O)CN(CC(=O)NC3CC3)C(=O)c3ccc(C(F)(F)F)[nH]3)cc2)cc1 [Compound 201-320] | 87.3% | 93 min | 80% | 20.8 min | 93%
CC(C)NC(=O)CN(CC(=O)Nc1ccc(Oc2ccc(F)c(F)c2)cc1)C(=O)c1cc2cccc(F)c2[nH]1 [Compound 201-277] | 90% | 40.2 min | 86% | 45.4 min | 100%
CC(C)NC(=O)CN(CC(=O)Nc1ccc(Oc2ccc(C(C)C)cc2)cc1)C(=O)c1cc2cccc(C#N)c2[nH]1 [Compound 201-323] | 105.6% | – | – | – | 79%
CC(C)NC(=O)CN(CC(=O)Nc1ccc(Oc2cc(F)c(F)c(F)c2)cc1)C(=O)c1cc2cccc(F)c2[nH]1 [Compound 201-331] | 103% | 20.6 min | 92% | 41 min | 87%
CC(C)NC(=O)CN(CC(=O)Nc1ccc(Oc2ccc(C(F)(F)F)cc2)cc1)C(=O)c1ccc(C(F)(F)F)[nH]1 [Compound 201-281] | 98% | 159 min | 70% | 428 min | 100%
CC(C)c1ccc(Oc2ccc(NC(=O)CN(CC(=O)NC3CC3)C(=O)c3cc4cccc(C#N)c4[nH]3)cc2)cc1 [Compound 201-324] | 101.5% | – | – | – | 72%
CC(C)NC(=O)CN(CC(=O)Nc1ccc(Oc2ccc(C(C)C)cc2)cc1)C(=O)c1ccc(C(F)(F)F)o1 [Compound 201-315] | 102% | – | – | – | 89%
COc1ccc(Oc2ccc(NC(=O)CN(CC(=O)NC3CC3)C(=O)c3cc4cccc(C#N)c4[nH]3)cc2)cc1 [Compound 201-326] | 112.5% | – | – | – | 83%
O=C(CN(CC(=O)NC1CC1)C(=O)c1ccc(C(F)(F)F)[nH]1)Nc1ccc(Oc2ccc(C(F)(F)F)cc2)cc1 [Compound 201-293] | 99% | 98.7 min | 50% | 417 min | 100%
CC(C)NC(=O)CN(CC(=O)Nc1ccc(Oc2ccc(C(F)F)cc2)cc1)C(=O)c1cc2cccc(F)c2[nH]1 [Compound 201-327] | 98% | 14.4 min | 88% | 35.4 min | 90%
CCc1ccc(Oc2ccc(NC(=O)CN(CC(=O)NC(C)C)C(=O)c3cc4cccc(F)c4[nH]3)cc2)cc1 [Compound 201-276] | 99% | 46.7 min | 54% | 42.4 min | 94%
COc1ccc(Oc2ccc(NC(=O)CN(CC(=O)NC(C)C)C(=O)c3cc4cccc(F)c4[nH]3)cc2)cc1 [Compound 201-313] | 89.4% | – | – | – | 98%
O=C(CN(CC(=O)NC1CC1)C(=O)c1cc2cccc(F)c2[nH]1)Nc1ccc(Oc2ccc(C(F)(F)F)cc2)cc1 [Compound 201-287] | 96% | 100 min | 56% | 138 min | 99%
CC(C)NC(=O)CN(CC(=O)Nc1ccc(Oc2ccc(C(C)C)cc2)cc1)C(=O)c1cc2cccc(F)c2[nH]1 [Compound 201-311] | 105.9% | – | – | – | 85%
CC(C)NC(=O)CN(CC(=O)Nc1ccc(Oc2ccc(F)c(F)c2)cc1)C(=O)c1ccc(C(F)(F)F)[nH]1 [Compound 201-283] | 97% | 77.8 min | 77% | 49.6 min | 100%
CC(C)NC(=O)CN(CC(=O)Nc1ccc(Oc2ccc(C(C)C)cc2)cc1)C(=O)c1ccc(C(F)(F)F)[nH]1 [Compound 201-319] | 76.1% | – | 60% | – | 96%
CC(C)NC(=O)CN(CC(=O)Nc1ccc(Oc2ccc(C(F)(F)F)cc2)cc1)C(=O)c1cc2cccc(F)c2[nH]1 [Compound 201-275] | 92% | 57.2 min | 75% | 341 min | 80%
COc1ccc(Oc2ccc(NC(=O)CN(CC(=O)NC(C)C)C(=O)c3ccc(C(F)(F)F)o3)cc2)cc1 [Compound 201-317] | 100.8% | – | – | – | –
COc1ccc2cc3[n+](cc2c1OC)CCc1cc2c(cc1-3)OCO2 [Berberine, reference compound] | – | – | 35% | – | 52%
CC(C)NC(=O)CN(CC(=O)Nc1ccc(Oc2ccc(C(F)(F)F)cc2)cc1)C(=O)c1cc2cccc(C#N)c2[nH]1 [Compound 201-284] | 101% | 64 min | 90% | 66 min | 94%
CC(C)NC(=O)CN(CC(=O)Nc1ccc(Oc2cc(F)c(F)c(F)c2)cc1)C(=O)c1cc2cccc(C#N)c2[nH]1 [Compound 201-332] | 99% | 22.4 min | 85% | 38.7 min | 89%
CC(C)c1ccc(Oc2ccc(NC(=O)CN(CC(=O)NC3CC3)C(=O)c3ccc(C(F)(F)F)o3)cc2)cc1 [Compound 201-316] | 108.4% | – | – | – | 89%
COc1ccc(Oc2ccc(NC(=O)CN(CC(=O)NC3CC3)C(=O)c3ccc(C(F)(F)F)o3)cc2)cc1 [Compound 201-318] | 101.6% | – | – | – | –
CC(C)NC(=O)CN(CC(=O)Nc1ccc(Oc2ccc(C(F)F)cc2)cc1)C(=O)c1cc2cccc(C#N)c2[nH]1 [Compound 201-329] | 106% | 14.3 min | 73% | 17.5 min | 91%
COc1ccc(Oc2ccc(NC(=O)CN(CC(=O)NC3CC3)C(=O)c3ccc(C(F)(F)F)[nH]3)cc2)cc1 [Compound 201-322] | 89.6% | – | – | – | –
